{"source": "paper PMC11469249", "about": "“Enzyme‐Triggered L‐α/D‐Peptide Hydrogels as a Long‐Acting Injectable Platform for Systemic Delivery of HIV/AIDS Drugs” (Advanced Healthcare Materials, 2023)", "key": {"NCTC 929 (ATCC CCL 1)": {"system": "NCTC 929 (ATCC CCL 1)", "test": "MTS viability assay, solubilized peptides", "assay_type": "cell-based, murine", "details": "500 µM; at each timepoint (6, 24, 72 h)", "procedure": "Cell toxicity was assessed above and below critical gelation concentrations utilizing the International Standard (ISO) murine fibroblast subcutaneous connective tissue cell line NCTC 929 (ATCC CCL 1).^[ [51] ^]\nPreparation of tissue cell cytotoxicity assays: Cells were cultured in Minimum Essential Medium (MEM) containing phenol red, Earle's Salts, and L‐glutamine supplemented with 10% fetal bovine serum and 1 mM sodium pyruvate (Invitrogen, Paisley, UK) and grown at 37 °C/5% CO2. Cells were subcultured at 80–90% confluency via removal of media, washing with sterile PBS, and detachment of cell monolayers with 0.05% trypsin/0.53 mM EDTA.4Na solution (Invitrogen, Paisley, UK). Cells were cultured until at least the third passage, seeded at 1 × 10^4 cells per well in sterile 96‐well microtiter plates for 6 h, 24 h, and 56 day treatment times and seeded at 5 × 10^3 cells per well for 72 h treatment times. […]\nFollowing exposure to peptide after 6, 24 and 72 h, cell viability was assessed using a MTS based CellTiter 96 AQueous One Solution Cell Proliferation Assay (Promega, Southampton, UK). Absorption was measured at 490 nm using a Tecan Sunrise plate reader (Tecan UK Ltd, Reading, UK). Cell viability was calculated using Equation (2) below and reported as the mean of nine replicates."}, "proteinase K": {"biological_target": "proteinase K (Parengyodontium album, UniProt P06873)", "sequence (P06873 106-384)": "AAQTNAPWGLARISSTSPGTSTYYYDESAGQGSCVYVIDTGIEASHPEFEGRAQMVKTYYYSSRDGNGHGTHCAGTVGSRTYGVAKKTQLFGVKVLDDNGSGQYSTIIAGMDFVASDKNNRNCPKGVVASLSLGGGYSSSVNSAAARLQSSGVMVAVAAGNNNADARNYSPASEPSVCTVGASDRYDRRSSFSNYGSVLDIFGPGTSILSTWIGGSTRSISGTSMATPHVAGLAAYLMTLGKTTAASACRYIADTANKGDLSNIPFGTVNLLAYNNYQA", "test": "Biostability against proteinase K", "assay_type": "in vitro ADME", "details": "after 672 h (28 days); 0.02 w/v% peptide in PBS; proteinase K 3 U/mL; 37 °C; RP-HPLC peak area vs t = 0; mean n = 3", "experimental": "Peptides were tested for stability at multiple time points over 28 days by incubation with the broad‐spectrum protease proteinase K. Peptides were tested in solution form at concentrations below their critical gelation concentrations (0.02 w/v%) to reduce any resistance to proteolysis offered by the hydrogel matrix itself.^[ [76] ^] 1 mL aliquots of peptide dissolved in PBS buffer were added to Eppendorf tubes. Proteinase K was added at a concentration of 3 U/mL and incubated at 37 °C. Then 100 µL samples were removed at pre‐determined time points (t = 0, 0.5, 1, 3, 6, 24, 72, 168, 336, 504, and 672 h) and added to 50 µL of concentrated acetic acid to inactivate proteinase K enzyme. Then 100 µL samples were then analyzed via RP‐HPLC. The amount of peptide remaining at each time point was calculated based on the area of the peak corresponding to the peptide and presented as a percentage of the area of this peak at t = 0 (Equation (1)). (1) %Peptideremaining=Areaofpeptidepeakattesttimepoint/[Areaofpeptidepeakatt=0]×100"}, "[1]": {"test": "Small angle neutron scattering (SANS) of hydrogels", "assay_type": "physicochemical", "details": "2 w/v% hydrogels in D2O; flexible cylinder elliptical model with Power Law", "experimental": "SANS was used to determine the morphology of the structures underpinning the hydrated peptide gel network. Both drug and non‐drug conjugated forms of peptides L‐α (NapFFKY‐OH and NapFFKYG‐OH) and D‐enantiomer (NapffkY‐OH and NapffkYG‐OH) were studied. Peptide hydrogels (2 w/v%) were formulated as described (Table S2, Supporting Information) in 2 mm path length UV spectrophotometer grade quartz cuvettes (Hellma) but using deuterated water (D2O) rather than PBS. SANS measurements were performed using the D11 instrument at the Institut Laue – Langevin, Grenoble, France. Scattering from the primary assembled structures (most commonly fibers) and the network were collected over a wide Q range (Q = 4πsin(θ/2)/λ) of 0.001 to 0.5 Å^−1 and three sample‐detector distances (1.4, 8, and 39 m).^[ [44] ^] Peptide samples were placed in a temperature‐controlled sample rack during measurements. The datasets obtained were reduced to 1D scattering curves of intensity versus Q using the facility provided software. Scattering from D2O controls, empty cuvette, and electronic background were subtracted from the data and the full detector images were normalized. SasView software version 5.0.4 was used to fit instrument‐independent data to several models with and without a power law applied, including a cylinder, an elliptical cylinder, a flexible cylinder, a flexible elliptical cylinder and hollow cylinders. […]"}, "[2]": {"system": "alkaline phosphatase enzyme", "test": "Rheological time sweeps, gelation time after alkaline phosphatase addition", "assay_type": "physicochemical", "details": "time sweep, 2 w/v%, 2 U alkaline phosphatase, 37 °C; for G′ and G″ cross (gelation time): PP50/S parallel plate, 0.5 mm gap", "experimental": "The gelation of peptides and peptide‐antiretroviral conjugates was tested over a range of concentrations (0.1–2 w/v%) in pH 7.4 phosphate buffered saline (PBS). The ability of alkaline phosphatase enzyme to trigger gelation was studied by adding 2 µL of 2 U (1000 U/mL) solution to the dissolved peptide‐PBS mixtures. Hydrogel formulation steps are outlined fully in Table S2, Supporting Information. A vial inversion assay was used as a screening tool to assess gel propensity, whereby peptide‐PBS‐alkaline phosphatase mixtures were inverted within glass HPLC vials. Gel formation and the mechanical strength of gels were definitively characterized via oscillatory rheology using an Anton Paar MCR302 rheometer (Anton Paar, St Albans, UK). A vane and cup geometry was used to perform frequency and strain sweeps. Gels were formulated as 2 mL volumes in 7 mL Sterilin vials as previously described.^[ [39b] ^] Frequency sweeps were performed at 37 °C from 1–100 rad/s at a strain of 0.5%. Amplitude sweeps were performed at 37 °C, 2.5 rad/s and a strain of 0.01–1000%. Flow point or breakage strain, where G″ ≥ G′ within the strain sweeps, was used as a measurement of gel strength. Time sweeps were performed using a sand blasted parallel plate PP50/S system at 37 °C with a 0.5 mm measuring gap over a period of 24 h. Loss and storage moduli, critical strain, viscosity, and oscillatory time sweeps were performed to relate rheological changes with time and potential for rapid in situ hydrogel implant formation upon exposure to 2 U phosphatase enzyme.\nTable S3. Gelation times for peptide hydrogels upon addition of alkaline phosphatase enzyme derived from data above in Figure S12 and Figure 3 c-d.\nPeptide G′ and G″ G′ > 2x G′′ Time for […]\nd) NapFFK(AZT)Y-OH 8.5 min 9 min 88.3 min"}, "NCTC 929 cells": {"system": "NCTC 929 cells", "test": "56 day indirect toxicity of hydrogels, LDH", "assay_type": "cell-based, murine", "details": "2 w/v% hydrogel supernatant; 6 h exposure; n = 3", "experimental": "Biocompatibility at the highest gel concentration of 2.0 w/v% was examined by measuring cell metabolic activity (MTS) and cytotoxicity (LDH release) in the presence of media containing leached degradation products from the peptide gels over a period of 56 days.^[ [77] ^] Following the formation of gels as outlined in Table S2, Supporting Information, 2 mL of media was added on top of each gel (1 mL of 2 w/v% gel) within a 10 mL glass vial and incubated at 37 °C and 5% CO2. For each time point in the 56 day study, NCTC 929 cells at 80–90% confluency were seeded into the wells of a 96 well plate at a concentration of 1 × 10^4 cells per well and incubated for a period of 24 h. One set of wells was left untreated and acted as the negative control, that is, metabolic activity of cells with no peptide. In the case of the LDH indirect toxicity assay, the media was removed from the cells before adding 50 µL of fresh media and 50 µL of the supernatant from the 2.0 w/v% gels at specific time points: 1, 3, 7, 14, 21, 28, and 56 days and incubated for 6 h before adding the test reagent as described above. A high LDH release control and a low LDH release control were created as before. Each experiment was performed in triplicate. The percentage cytotoxicity was calculated using Equation (2) above. […] The metabolic activity was calculated using Equation (1) above."}}, "note": "Where a SMILES comes first, the peptide text is derived from it. [ ]: non-standard residue; d: D form. The star is where a group is joined. X1 = Cc1cn([C@H]2C[C@H](N=[N+]=[N-])[C@@H](COC(=O)CCC(=O)*)O2)c(=O)[nH]c1=O; Acetyl(2-naphthyl) = O=C(Cc1ccc2ccccc2c1)*; pY = N[C@@H](Cc1ccc(OP(=O)(O)O)cc1)C(=O)O", "data": [{"compound": "Cc1cn([C@H]2C[C@H](N=[N+]=[N-])[C@@H](COC(=O)CCC(=O)NCCCC[C@H](NC(=O)[C@H](Cc3ccccc3)NC(=O)[C@H](Cc3ccccc3)NC(=O)Cc3ccc4ccccc4c3)C(=O)N[C@@H](Cc3ccc(OP(=O)(O)O)cc3)C(=O)O)O2)c(=O)[nH]c1=O", "note": "[NapFFK(AZT)Y(p)-OH] ({Acetyl(2-naphthyl)}-FFK(X1)[pY]-OH)", "values": [{"measurement": "reduction in cell metabolic activity (MTS)", "setting": "NCTC 929 (ATCC CCL 1)", "result": "40–51%"}]}, {"compound": "Cc1cn([C@H]2C[C@H](N=[N+]=[N-])[C@@H](COC(=O)CCC(=O)NCCCC[C@H](NC(=O)[C@H](Cc3ccccc3)NC(=O)[C@H](Cc3ccccc3)NC(=O)Cc3ccc4ccccc4c3)C(=O)N[C@@H](Cc3ccc(OP(=O)(O)O)cc3)C(=O)NCC(=O)O)O2)c(=O)[nH]c1=O", "note": "[NapFFK(AZT)Y(p)G-OH]", "values": [{"measurement": "zidovudine blood plasma concentrations for 35 days", "setting": "subcutaneous administration, within IC50 range", "result": "30 to 130", "unit": "ng/mL"}]}, {"compound": "NCCCC[C@H](NC(=O)[C@H](Cc1ccccc1)NC(=O)[C@H](Cc1ccccc1)NC(=O)Cc1ccc2ccccc2c1)C(=O)N[C@@H](Cc1ccc(OP(=O)(O)O)cc1)C(=O)O", "note": "[NapFFKY(p)-OH, phosphorylated (naphthalene‐2‐ly)‐acetyl‐diphenylalanine‐lysine‐tyrosine‐OH] (HELM PEPTIDE1{[O=C(Cc1ccc2ccccc2c1)[*:2]].F.F.K.[O=C(O)[C@H](Cc1ccc(OP(=O)(O)O)cc1)N[*:1]]}$$$$V2.0)", "values": [{"measurement": "% peptide remaining", "setting": "proteinase K", "result": 85.4, "unit": "%"}]}, {"compound": "NCCCC[C@H](NC(=O)[C@H](Cc1ccccc1)NC(=O)[C@H](Cc1ccccc1)NC(=O)Cc1ccc2ccccc2c1)C(=O)N[C@@H](Cc1ccc(OP(=O)(O)O)cc1)C(=O)NCC(=O)O", "note": "[NapFFKY(p)G-OH]", "values": [{"measurement": "% peptide remaining", "setting": "proteinase K", "result": 91.9, "unit": "%"}]}, {"compound": "Cc1cn([C@H]2C[C@H](N=[N+]=[N-])[C@@H](CO)O2)c(=O)[nH]c1=O", "note": "[zidovudine, reference compound]", "values": [{"measurement": "time after which plasma zidovudine is undetectable", "setting": "zidovudine intravenous control", "result": 6, "unit": "h"}]}, {"compound": "NapFFKY-OH [hydrogel-forming peptide after phosphatase removal of the phosphate group]", "values": [{"measurement": "fiber radius", "setting": "[1]", "result": 1.495, "unit": "nm"}, {"measurement": "G′ > 2x G″", "setting": "[2]", "result": 9.67, "unit": "min"}, {"measurement": "Time for stable G′", "setting": "[2]", "result": 68.3, "unit": "min"}, {"measurement": "G′ and G″ cross (gelation time)", "setting": "[2]", "result": 8.58, "unit": "min"}]}, {"compound": "NapFFKYG-OH [hydrogel-forming L-α peptide with glycine spacer]", "values": [{"measurement": "fiber radius", "setting": "[1]", "result": 2.038, "unit": "nm"}, {"measurement": "LDH cell toxicity, indirect, after 21 days", "setting": "NCTC 929 cells", "result": 23.2, "unit": "%"}, {"measurement": "LDH cell toxicity, indirect, after 56 days", "setting": "NCTC 929 cells", "result": 37, "unit": "%"}, {"measurement": "G′ > 2x G″", "setting": "[2]", "result": 7.75, "unit": "min"}, {"measurement": "Time for stable G′", "setting": "[2]", "result": 65.7, "unit": "min"}, {"measurement": "G′ and G″ cross (gelation time)", "setting": "[2]", "result": 5.92, "unit": "min"}]}]}
